Source: patent EP0009702A1, “A phenylalkylaminoethylsalicylamide, its preparation and pharmaceutical compositions containing it” (SCHERING CORPORATION, priority 1978, dated 1980)

Columns and labels:
β-adrenergic receptors [1] = details: as disclosed in British patent specifications 1,541,932 and 1,541,933; cited from earlier work
β-adrenergic receptors [2] = assay: β-adrenergic blocking potency, animal tests; assay type: in vivo; details: for β-blocking potency: relative to labetalol (assigned value 1.0), animal tests
Text: (§1) The a- and β-blocking activities discussed earlier in this specification can be determined by known methods, e.g. by those of Farmer et.al., Brit. J. Pharm., 45, 660 (1972); Robson, J. Pharm. Exp. Therap., 175, 157 (1970), and Levy, Arch. Int. Pharmacodyn. Ther., 204,. 143 (197-3).

a-adrenergic receptors = assay: α-adrenergic blocking potency, animal tests; assay type: in vivo; details: relative to labetalol (assigned value 1.0)
Text: as §1

[3] = direct peripheral vasodilation activity; assay type: in vivo; details: compared with labetalol
[4] = antihypertensive activity, laboratory tests, oral dosing; assay type: in vivo; details: result in words
[5] = toxicity at therapeutic doses; assay type: in vivo

Structure (SMILES) | β-adrenergic blocking activity (β-adrenergic receptors [1]) | β-blocking potency (β-adrenergic receptors [2]) | a-blocking potency (a-adrenergic receptors) | ratio of the β-adrenergic blocking potency to the a-adrenergic blocking potency (β-adrenergic receptors [2]; compared with labetalol) | direct peripheral vasodilation activity [3] | antihypertensive activity [4] | toxicity [5]
CC(CCc1ccccc1)NCC(O)c1ccc(O)c(C(N)=O)c1 (racemic) [diastereoisomer A] | strongly reduced | – | – | – | – | – | –
C[C@H](CCc1ccccc1)NC[C@H](O)c1ccc(O)c(C(N)=O)c1 (racemic) [diastereoisomer B, reference compound] | – | not significantly different from that of labetalol | half | – | – | – | –
C[C@H](CCc1ccccc1)NC[C@H](O)c1ccc(O)c(C(N)=O)c1 (single isomer, unassigned; isomer 5) [(R,R) optical isomer] | – | about twelve times | about one third | greatly and unexpectedly increased | greater direct peripheral vasodilation activity than labetalol | potent antihypertensive activity | substantially non-toxic
